Results published in patent US10626112B2, “Heterocyclic sulfonamide derivative and medicine comprising same” (EA PHARMA CO., LTD., priority 2014, dated 2020).

These compounds were tested against human TRPA1 (Homo sapiens (Human), UniProt O75762) (assay: Measurement of TRPA1 antagonist activity (2): as (1), different lot of human TRPA1 expression plasmid). Settings: 293T cells transfected with human TRPA1, allylisothiocyanate 20 μM stimulation, calcium fluorescence, read-out: hTRPA1 IC50.
Assay type: cell-based
In short: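 HEK293T cells transiently transfected with human TRPA1 plasmid (different lot), loaded with Calcium4 dye in HBSS/20 mM HEPES pH 7.2. Test compound preincubated 10 min, then allylisothiocyanate added at 20 μM final and fluorescence change read for 5 min. IC50 from sigmoid fit of inhibition relative to AITC-alone and buffer controls.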

human TRPA1, sequence (O75762 whole entry): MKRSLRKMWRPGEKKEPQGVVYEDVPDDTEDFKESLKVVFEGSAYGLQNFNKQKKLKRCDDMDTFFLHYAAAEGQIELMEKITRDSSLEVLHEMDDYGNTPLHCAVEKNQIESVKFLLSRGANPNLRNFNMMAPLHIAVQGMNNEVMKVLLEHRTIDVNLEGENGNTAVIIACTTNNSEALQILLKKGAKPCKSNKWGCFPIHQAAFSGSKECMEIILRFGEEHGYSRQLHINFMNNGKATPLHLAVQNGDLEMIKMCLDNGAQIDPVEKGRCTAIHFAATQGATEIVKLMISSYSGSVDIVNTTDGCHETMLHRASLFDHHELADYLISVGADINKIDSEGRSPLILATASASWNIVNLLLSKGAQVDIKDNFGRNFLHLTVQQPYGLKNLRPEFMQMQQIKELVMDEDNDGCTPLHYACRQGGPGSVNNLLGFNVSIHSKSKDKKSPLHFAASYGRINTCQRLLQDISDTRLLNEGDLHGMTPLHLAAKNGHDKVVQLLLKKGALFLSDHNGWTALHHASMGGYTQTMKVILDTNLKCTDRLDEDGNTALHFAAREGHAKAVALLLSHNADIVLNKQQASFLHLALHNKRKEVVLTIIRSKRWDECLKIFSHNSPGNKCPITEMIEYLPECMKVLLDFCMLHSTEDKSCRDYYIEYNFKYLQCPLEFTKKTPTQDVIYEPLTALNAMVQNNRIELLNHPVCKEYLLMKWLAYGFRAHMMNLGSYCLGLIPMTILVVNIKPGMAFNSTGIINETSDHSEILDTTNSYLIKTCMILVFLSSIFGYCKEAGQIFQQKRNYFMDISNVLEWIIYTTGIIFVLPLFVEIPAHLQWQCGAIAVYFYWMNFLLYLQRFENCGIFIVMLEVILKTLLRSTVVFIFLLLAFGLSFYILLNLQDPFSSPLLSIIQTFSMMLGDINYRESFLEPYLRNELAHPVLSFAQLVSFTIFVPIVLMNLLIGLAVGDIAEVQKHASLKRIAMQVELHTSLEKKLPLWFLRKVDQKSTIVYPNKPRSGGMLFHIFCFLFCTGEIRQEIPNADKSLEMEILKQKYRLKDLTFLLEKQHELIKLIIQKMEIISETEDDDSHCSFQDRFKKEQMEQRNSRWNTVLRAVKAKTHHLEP

Row | SMILES | IC50
1 | Nc1nc(CNC(=O)[C@@H]2CCCN2S(=O)(=O)c2cc3cc(F)ccc3o2)cc(-c2ccc(C(F)(F)F)cc2)n1 [Example 382, (2S)-N-[[2-amino-6-[4-(trifluoromethyl)phenyl]-pyrimidin-4-yl]methyl]-1-(5-fluorobenzofuran-2-yl)sulfonyl-pyrrolidine-2-carboxamide] | 0.027 µM
2 | O=C(NCc1cccc(-c2cnc(C(F)(F)F)cn2)c1)[C@@H]1CCN1S(=O)(=O)c1cc2cc(F)ccc2o1 [Example 392, (2S)-1-(5-fluorobenzofuran-2-yl)sulfonyl-N-[[3-[5-(trifluoromethyl)pyrazin-2-yl]phenyl]methyl]azetidine-2-carboxamide] | 0.0046 µM
3 | C[C@H](NS(=O)(=O)c1cc2cnccc2o1)C(=O)NCc1cccc(-c2ccc(C(F)(F)F)cn2)c1 [Example 367, (2S)-2-(furo[3,2-c]pyridin-2-ylsulfonylamino)-N-[[3-[5-(trifluoromethyl)-2-pyridyl]-phenyl]methyl]propanamide] | 0.17 µM
4 | O=C(NCc1cc(-c2ccc(C(F)(F)F)cc2)nc(N2CCCC2)n1)[C@@H]1CCCN1S(=O)(=O)c1cc2ccccc2o1 [Example 329, (2S)-1-(benzofuran-2-ylsulfonyl)-N-[[2-pyrrolidin-1-yl-6-[4-(trifluoromethyl)phenyl]pyrimidin-4-yl]methyl]pyrrolidine-2-carboxamide] | 0.014 µM
5 | CN(C)c1nc(CNC(=O)[C@@H]2CCCN2S(=O)(=O)c2cc3cc(F)ccc3o2)cc(-c2ccc(C(F)(F)F)cc2O)n1 [Example 397, (2S)-N-[[2-(dimethylamino)-6-[2-hydroxy-4-(trifluoromethyl)phenyl]-pyrimidin-4-yl]methyl]-1-(5-fluorobenzofuran-2-yl)sulfonyl-pyrrolidine-2-carboxamide] | 0.0068 µM
6 | O=C(NCc1cc(-c2ccc(C(F)(F)F)cc2)ncn1)[C@@H]1CCN1S(=O)(=O)c1cc2ccccc2o1 [Example 386, (2S)-1-(benzofuran-2-ylsulfonyl)-N-[[6-[4-(trifluoromethyl)phenyl]-pyrimidin-4-yl]methyl]azetidine-2-carboxamide] | 0.0066 µM
7 | O=C(NCc1cc(-c2ccc(C(F)(F)F)cc2)nc(N2CCOCC2)n1)[C@@H]1CCCN1S(=O)(=O)c1cc2ccccc2o1 [Example 330, (2S)-1-(benzofuran-2-ylsulfonyl)-N-[[2-morpholino-6-[4-(trifluoromethyl)phenyl]pyrimidin-4-yl]methyl]pyrrolidine-2-carboxamide] | 0.015 µM
8 | CC(C)N(CC(=O)NCc1cc(-c2ccc(C(F)(F)F)cc2)ncn1)S(=O)(=O)c1cc2cnccc2o1 [Example 368, 2-[furo[3,2-c]pyridin-2-ylsulfonyl(isopropyl)amino]-N-[[6-[4-(trifluoromethyl)-phenyl]pyrimidin-4-yl]methyl]acetamide] | 0.013 µM
9 | O=C(NCc1cc(-c2cnc(C(F)(F)F)cn2)ccn1)[C@@H]1CCN1S(=O)(=O)c1cc2cc(F)ccc2o1 [Example 393, (2S)-1-(5-fluorobenzofuran-2-yl)sulfonyl-N-[[4-[5-(trifluoromethyl)pyrazin-2-yl]-2-pyridyl]methyl]azetidine-2-carboxamide] | 0.0091 µM
10 | CN(CC(=O)NCc1cc(-c2ccc(C(F)(F)F)cc2)ncn1)S(=O)(=O)c1cc2cc(F)ccc2o1 [Example 344, 2-[(5-fluorobenzofuran-2-yl)sulfonyl-methyl-amino]-N-[[6-[4-(trifluoromethyl)-phenyl]pyrimidin-4-yl]methyl]acetamide] | 0.0033 µM
11 | CN(C)c1nc(CNC(=O)[C@@H]2CCCN2S(=O)(=O)c2cc3cc(F)ccc3o2)cc(-c2ccc(C(F)(F)F)cc2)n1 [Example 378, (2S)-N-[[2-(dimethylamino)-6-[4-(trifluoromethyl)phenyl]-pyrimidin-4-yl]methyl]-1-(5-fluorobenzofuran-2-yl)sulfonyl-pyrrolidine-2-carboxamide] | 0.0052 µM
12 | C[C@H](NS(=O)(=O)c1cc2cnccc2o1)C(=O)NCc1ccc(O)c(-c2ccc(C(F)(F)F)cn2)c1 [Example 373, (2S)-2-(furo[3,2-c]pyridin-2-ylsulfonylamino)-N-[[4-hydroxy-3-[5-(trifluoromethyl)-2-pyridyl]-phenyl]methyl]propanamide] | 0.079 µM
13 | O=C(NCc1ccnc(-c2cnc(C(F)(F)F)nc2)c1)[C@@H]1CCN1S(=O)(=O)c1cc2cc(F)ccc2o1 [Example 403, (2S)-1-(5-fluorobenzofuran-2-yl)sulfonyl-N-[[2-[2-(trifluoromethyl)pyrimidin-5-yl]-4-pyridyl]methyl]azetidine-2-carboxamide] | 0.013 µM
14 | O=C(NCc1ccnc(-c2ccc(C(F)F)cc2)c1)[C@@H]1CCCN1S(=O)(=O)c1cc2ccccc2o1 [Example 332, (2S)-1-(benzofuran-2-ylsulfonyl)-N-[[2-[4-(difluoromethyl)phenyl]-4-pyridyl]methyl]pyrrolidine-2-carboxamide] | 0.016 µM
15 | C[C@H](NS(=O)(=O)c1cc2cnccc2o1)C(=O)NCc1ccnc(-c2ccc(C(F)(F)F)cc2)c1 [Example 366, (2S)-2-(furo[3,2-c]pyridin-2-ylsulfonylamino)-N-[[2-[4-(trifluoromethyl)phenyl]-4-pyridyl]methyl]propanamide] | 0.19 µM

The remaining lines, values ahead:

Row | IC50 | SMILES
16 | 0.0029 µM | C[C@@H](C(=O)NCc1cc(-c2ccc(C(F)(F)F)cc2)ncn1)N(C)S(=O)(=O)c1cc2cc(F)ccc2o1 [Example 421, (2S)-2-[(5-fluorobenzofuran-2-yl)sulfonyl-methyl-amino]-N-[[6-[4-(trifluoromethyl)phenyl]pyrimidin-4-yl]methyl]propanamide]
17 | 0.011 µM | C#CCN([C@@H](C)C(=O)NCc1cc(-c2ccc(C(F)(F)F)cn2)ccn1)S(=O)(=O)c1cc2cc(F)ccc2o1 [Example 418, (2S)-2-[(5-fluorobenzofuran-2-yl)sulfonyl-prop-2-ynylamino]-N-[[4-[5-(trifluoromethyl)-2-pyridyl]-2-pyridyl]methyl]propanamide]
18 | 0.029 µM | O=C(NCc1cc(-c2cnc(C(F)(F)F)nc2)ncn1)[C@@H]1CCN1S(=O)(=O)c1cc2ccccc2o1 [Example 409, (2S)-1-(benzofuran-2-ylsulfonyl)-N-[[6-[2-(trifluoromethyl)pyrimidin-5-yl]pyrimidin-4-yl]methyl]azetidine-2-carboxamide]
19 | 0.012 µM | CC(C)N(CC(=O)NCc1cc(-c2ccc(C(F)(F)F)cc2O)ncn1)S(=O)(=O)c1cc2cc(F)ccc2o1 [Example 413, 2-[(5-fluorobenzofuran-2-yl)sulfonyl-isopropyl-amino]-N-[[6-[2-hydroxy-4-(trifluoromethyl)phenyl]pyrimidin-4-yl]methyl]acetamide]
20 | 0.0027 µM | O=C(NCc1cc(-c2ccc(C(F)(F)F)cc2O)ncn1)[C@@H]1CCN1S(=O)(=O)c1cc2cc(F)ccc2o1 [Example 412, (2S)-1-(5-fluorobenzofuran-2-yl)sulfonyl-N-[[6-[2-hydroxy-4-(trifluoromethyl)phenyl]pyrimidin-4-yl]methyl]azetidine-2-carboxamide]
21 | 0.007 µM | O=C(NCc1cc(-c2ncc(C(F)(F)F)cn2)ccn1)[C@@H]1CCCN1S(=O)(=O)c1cc2cc(F)ccc2o1 [Example 407, (2S)-1(5-fluorobenzofuran-2-yl)sulfonyl-N-[[4-[5-(trifluoromethyl)pyrimidin-2-yl]-2-pyridyl]methyl]pyrrolidine-2-carboxamide]
